As usually defined, the EC50 is the midpoint of the concentration-response curve.

Ends that are not written are not given here.

The source of these data is PMC7032632 (Experimental eye research, 2019).

Test [1] deals with choroidal neovascularization (CNV). The note with it: mouse, day 0 IVT injection; ref Wang et al., 2012; cited from earlier work.
Test [2] deals with VEGF-activated endothelial cells (primary human dermal microvascular EC). In kind it is cell-based. The note with it: 48 h.
The test system of a further test is cells presenting 67LR. Conditions: ref Gopalakrishna et al., 2018; Yu et al., 2009; cited from earlier work.

As to “Ac-GV-d-alloIle-Ser-Q-I-R-Pro-ethylamide [ABT-898]”, in test [1], the “laser-induced CNV, IVT injection” value is recorded as “mitigate laser-induced CNV”.
Turning to NFGYDLYRVRSSMSPTTN [PEDF P18], it took 10 nM to reach a half-maximal effect in test [2] (EC50).
With YIGSR, the “activity range in cells presenting 67LR” value in the test with cells presenting 67LR is 2 to 20 µM.
Ac-GYDLYRV-NH2 [PEDF 862] came in with a concentration giving a half-maximal response (EC50) in test [2] of 30 nM.
On the same count and under the same terms, the value for Ac-GYDLYRVRS-NH2 [PEDF 860] was 60 nM.
